Tests used:
[1] = system: HCV genotype 1a (H77 strain) replicon in HUH-7 cells; experiment: HCV replicon luciferase reporter assay, genotype 1a; type: cell-based; settings: Hepatitis C virus, 72 h, genotype 1a replicon, 3 days incubation, read-out: LE_1a (EC50, range)
Text: (§1) An HCV replicon whole cell system was established as described by Lohmann V, Korner F, Koch J, Herian U, Theilmann L, Bartenschlager R., Science 285(5424):110-3 (1999) and modified to introduce a luciferase reporter, as first described by Krieger et al (Krieger N, Lohmann V, and Bartenschlager R, J. Virol. 75(10):4614-4624 (2001)). CDNA encoding a humanized form of the Renilla luciferase gene and a linker sequence fused directly to the 3′-end of the luciferase gene were introduced into the replicon construct using an Ascl restriction site located in core, directly upstream of the neomycin marker gene. The adaptive mutation at position 1179 (serine to isoleucine) was also introduced (Blight K J, Kolykhalov, A A, Rice, C M, Science 290(5498):1972-1974). A stable cell line constitutively expressing this HCV replicon construct was generated by first linearizing plasmid DNAs with ScaI. RNA transcripts were synthesized in vitro using the T7 MegaScript transcription kit (Ambion, Austin, Tex.) according to manufacturer's directions. In vitro transcripts of the cDNA were transfected into the human hepatoma cell line, HUH-7. […] Resulting cell lines were characterized for positive and negative strand RNA production and protein production over time.
A stable HCV replicon luciferase reporter cell line representing the genotype 1a H77 strain (Yanagi M, Purcell R H, Emerson S U, et al. Transcripts from a single full-length cDNA clone of hepatitis C virus are infectious when directly transfected into the liver of a chimpanzee. Proc Natl Acad Sci USA 1997; 94(16):8738-8743) was generated as described previously for the genotype 1b(Con1) replicon luciferase cell line. The replicon construct was modified by introducing mutations were introduced into the genes encoding the NS3 helicase domain (proline replaced by leucine at position 1496) and NS5A (serine to isoleucine at position 2204) to improve replication in cell culture.
(§2) HCV replicon luciferase assays were developed to monitor the inhibitory effects of compounds described in the disclosure on HCV genotypes 1a and 1b viral replication. HUH-7 cells, constitutively expressing the HCV replicon, were grown in Dulbecco's Modified Eagle Media (DMEM) (Gibco-BRL) containing 10% Fetal calf serum (FCS) (Sigma) and 1 mg/mL G418 (Gibco-BRL). Compounds were serially diluted 3 folds in DMSO for a twenty-point titration and subsequently transferred to sterile 384-well tissue-culture treated plates (Corning cat #3571). The plates were then seeded with 50 μL of cells at a density of 3.0×10^3 cells/well in DMEM containing 4% FCS (final DMSO concentration at 0.5%). After 3 days incubation at 37° C., cells were analyzed for Renilla Luciferase activity using the EnduRen as substrate (Promega cat #E6485). The EnduRen substrate was diluted in DMEM and then added to the plates to a final concentration of 7.5 μM. The plates were incubated for 2 hrs at 37° C. and then read immediately for 30 seconds with Viewlux Imager (PerkinElmer) using a luminescence program. To assess cytotoxicity of compounds, CC50 values were generated by multiplexing the EnduRen-containing plates with Cell Titer-Blue (Promega, cat # G8082). Cell-Titer Blue (3 μL) was added to each well and incubated for 8 hrs at 37° C. The fluorescence signal from each well was read, with an excitation wavelength at 525/10 nm and an emission wavelength of 598/10 nm, using the Viewlux Imager.
(§3) The EC50 values for compounds were calculated by using a four-parameter logistic equation: y=A+((B−A)/(1+((C/x)^D))), where A and B denotes minimal and maximal % inhibition, respectively, C is the EC50, D is the hill slope and x represents compound concentration.

[2] = system: HCV genotype 1b (Con1) replicon in HUH-7 cells; experiment: HCV replicon luciferase reporter assay, genotype 1b; type: cell-based; settings: Hepatitis C virus, 72 h, genotype 1b replicon, 3 days incubation, read-out: LE_1b (EC50, range)
Text: as §1, §2, §3

| Structure (SMILES) | EC50 [1] [nM] | EC50 [2] [nM] |
| --- | --- | --- |
| CC[C@@H]1O[C@H](C)CC/C=C\[C@@H]2C[C@@]2(C(=O)NS(=O)(=O)C2(C)CC2)NC(=O)[C@@H]2C[C@@H](Oc3nc4cc(OC)ccc4nc3C(F)(F)F)CN2C(=O)[C@H]1NC(=O)OC(C)(C)C(F)(F)F [Compound 1015, 1,1,1-trifluoro-2-methylpropan-2-yl ((2R,6S,7S,9R,13aS,14aR,16aS,Z)-7-ethyl-2-((7-methoxy-3-(trifluoromethyl)quinoxalin-2-yl)oxy)-9-methyl-14a-(((1-methylcyclopropyl)sulfonyl)carbamoyl)-5,16-dioxo-2,3,5,6,7,9,10,11,13a,14,14a,15,16,16a-tetradecahydro-1H-cyclopropa[i]pyrrolo[1,2-e][1,5,8]oxadiazacyclopentadecin-6-yl)carbamate] | 0.1 to 0.5 | 0.1 to 0.5 |
| CC[C@@H]1O[C@H](C)CC/C=C\[C@@H]2C[C@@]2(C(=O)NS(=O)(=O)C2(C)CC2)NC(=O)[C@@H]2C[C@@H](Oc3nc4cc(OC)ccc4nc3C(F)(F)F)CN2C(=O)[C@H]1NC(=O)OC(C)(C)C(C)(F)F [Compound 1016, 3,3-difluoro-2-methylbutan-2-yl ((2R,6S,7S,9R,13aS,14aR,16aS,Z)-7-ethyl-2-((7-methoxy-3-(trifluoromethyl)quinoxalin-2-yl)oxy)-9-methyl-14a-(((1-methylcyclopropyl)sulfonyl)carbamoyl)-5,16-dioxo-2,3,5,6,7,9,10,11,13a,14,14a,15,16,16a-tetradecahydro-1H-cyclopropa[i]pyrrolo[1,2-e][1,5,8]oxadiazacyclopentadecin-6-yl)carbamate] | 0.1 to 0.5 | 0.1 to 0.5 |
| CC[C@@H]1O[C@H](C)CC/C=C\[C@@H]2C[C@@]2(C(=O)NS(=O)(=O)C2(C)CC2)NC(=O)[C@@H]2C[C@@H](Oc3nc4c(c5cc(OC)c(F)cc35)CCCO4)CN2C(=O)[C@H]1NC(=O)OC(C)(C)C(F)(F)F [Compound 1017, 1,1,1-trifluoro-2-methylpropan-2-yl ((2R,6S,7S,9R,13aS,14aR,16aS,Z)-7-ethyl-2-((8-fluoro-9-methoxy-2,3-dihydro-1H-pyrano[2,3-c]isoquinolin-6-yl)oxy)-9-methyl-14a-(((1-methylcyclopropyl)sulfonyl)carbamoyl)-5,16-dioxo-2,3,5,6,7,9,10,11,13a,14,14a,15,16,16a-tetradecahydro-1H-cyclopropa[i]pyrrolo[1,2-e][1,5,8]oxadiazacyclopentadecin-6-yl)carbamate] | 0.51 to 1 | 0.51 to 1 |
| CC[C@@H]1O[C@H](C)CC/C=C\[C@@H]2C[C@@]2(C(=O)NS(=O)(=O)C2(C)CC2)NC(=O)[C@@H]2C[C@@H](Oc3cc(OC)nc4cc(OC)c(F)cc34)CN2C(=O)[C@H]1NC(=O)OC(C)(C)C(F)(F)F [Compound 1018, 1,1,1-trifluoro-2-methylpropan-2-yl ((2R,6S,7S,9R,13aS,14aR,16aS,Z)-7-ethyl-2-((6-fluoro-2,7-dimethoxyquinolin-4-yl)oxy)-9-methyl-14a-(((1-methylcyclopropyl)sulfonyl)carbamoyl)-5,16-dioxo-2,3,5,6,7,9,10,11,13a,14,14a,15,16,16a-tetradecahydro-1H-cyclopropa[i]pyrrolo[1,2-e][1,5,8]oxadiazacyclopentadecin-6-yl)carbamate] | 1.01 to 5 | 0.51 to 1 |
| CC[C@@H]1O[C@H](C)CC/C=C\[C@@H]2C[C@@]2(C(=O)NS(=O)(=O)C2(C)CC2)NC(=O)[C@@H]2C[C@@H](Oc3cc(OC)nc4cc(OC)ccc34)CN2C(=O)[C@H]1NC(=O)OC(C)(C)C(F)(F)F [Compound 1019, 1,1,1-trifluoro-2-methylpropan-2-yl ((2R,6S,7S,9R,13aS,14aR,16aS,Z)-2-((2,7-dimethoxyquinolin-4-yl)oxy)-7-ethyl-9-methyl-14a-(((1-methylcyclopropyl)sulfonyl)carbamoyl)-5,16-dioxo-2,3,5,6,7,9,10,11,13a,14,14a,15,16,16a-tetradecahydro-1H-cyclopropa[i]pyrrolo[1,2-e][1,5,8]oxadiazacyclopentadecin-6-yl)carbamate] | 1.01 to 5 | 0.1 to 0.5 |
| CC[C@@H]1O[C@H](C)CC/C=C\[C@@H]2C[C@@]2(C(=O)NS(=O)(=O)C2(C)CC2)NC(=O)[C@@H]2C[C@@H](Oc3cc(OC)nc4cc(OC)ccc34)CN2C(=O)[C@H]1NC(=O)OC(C)(C)C(C)(F)F [Compound 1020, 3,3-difluoro-2-methylbutan-2-yl ((2R,6S,7S,9R,13aS,14aR,16aS,Z)-2-((2,7-dimethoxyquinolin-4-yl)oxy)-7-ethyl-9-methyl-14a-(((1-methylcyclopropyl)sulfonyl)carbamoyl)-5,16-dioxo-2,3,5,6,7,9,10,11,13a,14,14a,15,16,16a-tetradecahydro-1H-cyclopropa[i]pyrrolo[1,2-e][1,5,8]oxadiazacyclopentadecin-6-yl)carbamate] | 1.01 to 5 | 0.51 to 1 |
| COc1ccc2c(O[C@@H]3C[C@H]4C(=O)N[C@]5(C(=O)NS(=O)(=O)C6(C)CC6)C[C@H]5/C=C\CC[C@@H](C)O[C@@H](C)[C@H](NC(=O)OC(C)(C)C(F)(F)F)C(=O)N4C3)nccc2c1 [Compound 2002, 1,1,1-trifluoro-2-methylpropan-2-yl ((2R,6S,7S,9R,13aS,14aR,16aS,Z)-2-((6-methoxyisoquinolin-1-yl)oxy)-7,9-dimethyl-14a-(((1-methylcyclopropyl)sulfonyl)carbamoyl)-5,16-dioxo-2,3,5,6,7,9,10,11,13a,14,14a,15,16,16a-tetradecahydro-1H-cyclopropa[i]pyrrolo[1,2-e][1,5,8]oxadiazacyclopentadecin-6-yl)carbamate] | 0.51 to 1 | 0.1 to 0.5 |
| COc1cnc(O[C@@H]2C[C@H]3C(=O)N[C@]4(C(=O)NS(=O)(=O)C5(C)CC5)C[C@H]4/C=C\CC[C@@H](C)O[C@@H](C)[C@H](NC(=O)OC(C)(C)C(F)(F)F)C(=O)N3C2)c2ccccc12 [Compound 2003, 1,1,1-trifluoro-2-methylpropan-2-yl ((2R,6S,7S,9R,13aS,14aR,16aS,Z)-2-((4-methoxyisoquinolin-1-yl)oxy)-7,9-dimethyl-14a-(((1-methylcyclopropyl)sulfonyl)carbamoyl)-5,16-dioxo-2,3,5,6,7,9,10,11,13a,14,14a,15,16,16a-tetradecahydro-1H-cyclopropa[i]pyrrolo[1,2-e][1,5,8]oxadiazacyclopentadecin-6-yl)carbamate] | 0.51 to 1 | 0.1 to 0.5 |
| CCOc1cnc(O[C@@H]2C[C@H]3C(=O)N[C@]4(C(=O)NS(=O)(=O)C5(C)CC5)C[C@H]4/C=C\CC[C@@H](C)O[C@@H](C)[C@H](NC(=O)OC(C)(C)C(F)(F)F)C(=O)N3C2)c2ccccc12 [Compound 2004, 1,1,1-trifluoro-2-methylpropan-2-yl ((2R,6S,7S,9R,13aS,14aR,16aS,Z)-2-((4-ethoxyisoquinolin-1-yl)oxy)-7,9-dimethyl-14a-(((1-methylcyclopropyl)sulfonyl)carbamoyl)-5,16-dioxo-2,3,5,6,7,9,10,11,13a,14,14a,15,16,16a-tetradecahydro-1H-cyclopropa[i]pyrrolo[1,2-e][1,5,8]oxadiazacyclopentadecin-6-yl)carbamate] | 0.51 to 1 | 0.1 to 0.5 |

Source: patent US9598433B2, “Hepatitis C virus inhibitors” (BRISTOL-MYERS SQUIBB COMPANY, priority 2012, dated 2017)
